Here are results for 3 compounds from EP4653424A1, “PYRIDAZINONE PARP INHIBITOR, AND PREPARATION METHOD THEREFOR, AND PHARMACEUTICAL COMPOSITION AND USE THEREOF” (China Pharmaceutical University, priority 2023, dated 2024).

Where only a bound is given, the exact number is not on record here.

One data set concerns the target T1, PARP7 enzyme (Homo sapiens, UniProt Q7Z3E1).
T1 construct: purchased BPS Bioscience
T1 sequence (Q7Z3E1 1-657): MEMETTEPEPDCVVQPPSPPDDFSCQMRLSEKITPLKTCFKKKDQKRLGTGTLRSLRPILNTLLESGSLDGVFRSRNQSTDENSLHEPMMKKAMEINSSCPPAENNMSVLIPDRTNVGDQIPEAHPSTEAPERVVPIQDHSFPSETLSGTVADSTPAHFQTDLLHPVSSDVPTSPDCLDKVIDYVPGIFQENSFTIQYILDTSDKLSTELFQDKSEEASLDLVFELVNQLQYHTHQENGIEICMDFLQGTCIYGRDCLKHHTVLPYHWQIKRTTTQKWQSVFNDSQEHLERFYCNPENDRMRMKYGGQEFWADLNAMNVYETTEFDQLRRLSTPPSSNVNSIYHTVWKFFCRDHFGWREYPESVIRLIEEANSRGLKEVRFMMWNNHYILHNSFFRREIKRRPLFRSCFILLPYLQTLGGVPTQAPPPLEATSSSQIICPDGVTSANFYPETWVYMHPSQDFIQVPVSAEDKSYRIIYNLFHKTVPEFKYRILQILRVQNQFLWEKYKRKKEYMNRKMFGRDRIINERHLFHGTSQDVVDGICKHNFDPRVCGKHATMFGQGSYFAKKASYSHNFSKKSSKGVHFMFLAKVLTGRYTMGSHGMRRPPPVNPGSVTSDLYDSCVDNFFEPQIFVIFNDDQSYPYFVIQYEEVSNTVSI
Nature of the data set: PARP7 Chemiluminescent Assay Kit enzyme inhibition assay. The following applies: for inhibition at 0.1 µM: compound at 100 nM. Type of data set: biochemical. Here is the method:
Example 60: Inhibitory activity of compounds against PARP7 enzyme
Materials: PARP7 Chemiluminescent Assay Kit, BPS Bioscience; DMSO, Sinopharm, Nivo, PerkinElmer.
Preparation of 10× PBS: 720 mg of KH2PO4, 45 g of NaCl, and 5.311 g of Na2HPO4·12H2O were dissolved in 500 mL of deionized water. The system was adjusted to pH 7.4, sterilized at 121 °C for 30 min, and cooled, and then preserved at 4 °C for later use.
Preparation of 1 × PBS: 10× PBS was diluted 10-fold with deionized water, i.e., 1 part of 10× PBS was diluted with 9 parts of deionized water.
Preparation of wash buffer: 1 × PBS containing 0.05% Tween-20.
Preparation of 1 × PARP buffer: (prepared right before use) 10× PARP buffer was diluted 10-fold with deionized water and placed on ice for later use.
According to the study requirements, the test compound was diluted to the desired concentration with 100% DMSO, and then diluted 10-fold with 1× PARP buffer to give a 10× compound working solution.
• a. 5× histone mixture was thawed on ice the day before the study; • b. 1× histone mixture was prepared by diluting 5× histone mixture into 1× histone mixture with 1× PBS; 25 µL of 1× histone mixture was added to each well of the test plate and incubated overnight at 4 °C; • c. 100 µL of the blocking buffer was taken per well and added to the test plate, and the plate was incubated at 25 °C for 90 min; • d. After the incubation was completed, the liquid in the test plate was discarded, and the plate was washed 3 times; • e. 2.5 µL of compound working solution was taken from each well and added to the test plate according to the experimental layout; a corresponding volume of 1× PARP buffer containing 10% DMSO was added to the positive control wells (Positive control), and a corresponding volume of 1× PARP buffer was added to the blank control wells (Blank); • f. After the enzyme was completely dissolved, the enzyme stock solution was diluted to 6 ng/µL with 1× PARP buffer; • g. The enzyme solution was added to a test well plate at 10 µL/well, and a corresponding volume of 1× PARP buffer was added to the blank control wells, where the enzyme amount was 60 ng/well. Note: this procedure should be performed on ice; • h. […] ELISA ECL Substrate A and ELISA ECL Substrate B in the kit were mixed in a ratio of 1:1, the mixed solution was added to the test plate at 50 µL/well, luminescence detection was immediately performed using Nivo, and the luminescence value (RLU) was read; • m. […] Enzyme inhibition = 1 - % Enzyme Activity; the IC 50 was calculated using GraphPad Prism 8.

Data set [1] is described as follows: Caco-2 bidirectional (ABBA) permeability assay. It is filed as in vitro ADME. The following applies: human, Caco-2. As for the experimental part: (§1) Materials: test compounds I-A-1, I-A-2, and RBN-2397.
(§2) • (1) Caco-2 cell plating • 1. 600 µL of cell culture medium and 100 µL of cell culture medium were added to the wells of […], respectively; • 2. Before cell inoculation, Transwell was pre-incubated at 37 °C and 5% CO2 for 1 h; • 3. 100 µL of cell suspension (4 × 10^5 cells/mL) was seeded into the culture medium and cultured at 37 °C, 5% CO2, and 95% relative humidity for 14-21 days; • 4. The cell culture medium was replaced once every other day in the first 7 days, and once every day after day 7; • 5. The transepithelial electrical resistance (TEER) of the monolayer membrane was measured using EVOM3. • (2) ABBA process • 1. The plate was washed twice with pre-heated HBSS (10 mM HEPES, pH 7.4) and then incubated at 37 °C for 30 min. • 2. Test compounds were prepared in 1 mM DMSO and diluted 200-fold to 5 µM with HBSS (10 mM HEPES, pH 7.4) and HBSS (100 µM Lucifer Yellow, 10 mM HEPES, pH 7.4). • 3. Apical to basal direction: 200 µL of 5 µM working solution (100 µM Lucifer Yellow) was added to the apical compartment, and 600 µL of HBSS (10 mM HEPES, pH 7.4) was added to the basal compartment. • 4. Basal to apical direction: 600 µL of 5 µM working solution was added to the basal compartment, and 200 µL of HBSS (100 µM Lucifer Yellow, 10 mM HEPES, pH 7.4) was added to the apical compartment. • 5. 100 µL of 5 µM working solution was transferred to a sample plate containing 400 µL of cold methanol, and IS* was C0. • 6. The cell plate was incubated at 37 °C, 5% CO2, and 95% relative humidity for 2 h. • 7. 5 µL of the working solution was transferred from the apical compartment and the basal compartment to the plate. After 0.5 h of incubation, the 427 nm excitation values and 536 nm emission values were read by the Lucifer Yellow leakage detector. • 8. After 2 h of incubation, 100 µL of the solution was transferred from the apical and basal compartments with IS* to a sample plate containing 400 µL of cold methanol. • 9. The sample plate was centrifuged at 3220 g for 40 min. • 10. 100 µL of the supernatant was transferred to an assay plate containing an appropriate volume of water for LC-MS/MS analysis. • (3) Calculation
(§3) The apparent permeability coefficient (Papp, cm/s) and the efflux ratio were calculated using Microsoft Excel. Papp = (VA × Cacceptor × 100)/(Area × Time × Cinitial,donor) [formula] Efflux Ratio = (Papp(B−A))/(Papp(A−B)) [formula] Table 3. Physicochemical properties of test compounds

In a further data set the test system is Caco-2 cell. Nature of the data set: Caco-2 bidirectional (ABBA) permeability assay. Type of data set: in vitro ADME. Here is the method: as §1, §2, §3

Usually IC50 stands for the concentration at which inhibition is half-maximal. The inhibition is the change of the read-out against control, counted positive when it falls. A lower inhibition goes with a weak effect. What is called efflux ratio is the permeability from basolateral to apical divided by that in the opposite direction, in the common usage. For orientation: Papp A→B means how fast a substance crosses the layer from the apical side. A low value points to slow passage. The Papp B→A is the apparent permeability from the basolateral to the apical side of a cell layer. `O=c1[nH]ncc(NCC#Cc2ccccc2C(F)(F)F)c1C(F)(F)F` [I-A-1, 4-trifluoromethyl-5-((3-(2-(trifluoromethyl)phenyl)prop-2-yn-1-yl)amino)pyridazin-3(2 H)-one]: on PARP7 enzyme, the half-maximal inhibitory concentration (IC50) is below 0.1 µM and the inhibition at 0.1 µM is at least 50%. Also, the efflux ratio at 2 h, 5 µM in data set [1] (Papp(B-A)/Papp(A-B)) stood at 0.52. In addition, the apparent permeability from apical to basolateral (Papp A→B) at 2 h, 5 µM in data set [1] (apical to basal, 5 µM, 2 h) turned out to be 39.9 ×10⁻⁶ cm/s. Besides, the Papp B→A at 2 h, 5 µM in data set [1] (basal to apical, 5 µM, 2 h) came to 20.9 ×10⁻⁶ cm/s. Also, in the data set on Caco-2 cell (Caco-2, summary in words), the efflux ratio result was “lower efflux ratio” and the membrane permeability result is recorded as “better membrane permeability”.

Take `O=C(CCNc1cn[nH]c(=O)c1C(F)(F)F)c1ccccc1` [I-D-1, 5-((3-oxo-3-phenylpropyl)amino)-4-(trifluoromethyl)pyridazin-3(2 H)-one]: at PARP7 enzyme, the IC50 was below 0.1 µM and the inhibition at 0.1 µM is at least 50%.

With `C[C@@H](COCCC(=O)N1CCN(c2ncc(C(F)(F)F)cn2)CC1)Nc1cn[nH]c(=O)c1C(F)(F)F` [RBN-2397, reference compound], the membrane permeability entry in the data set on Caco-2 cell (Caco-2, summary in words) is given as “poor membrane permeability”. Besides, the “efflux ratio” value in the data set with Caco-2 cell (Papp(B-A)/Papp(A-B), Caco-2) worked out at 5.9. The “PappA→B (1E-6 cm/s)” value with Caco-2 cell (apical to basal, 5 µM, 2 h, Caco-2) is reported as 4.1 1E-6 cm/s. In the data set on Caco-2 cell (basal to apical, 5 µM, 2 h, Caco-2), the “PappB→A (1E-6 cm/s)” value is 24 1E-6 cm/s.
